# Measured values published in article PMC8058344, “ARIH1 signaling promotes anti-tumor immunity by targeting PD-L1 for proteasomal degradation” (Nature Communications, 2021).
# Where “and” joins values, the source holds several entries; their conditions need not be identical. Identical values can stand only once. Residues, ends and D or L forms follow the SMILES beside them. *: point of attachment. Cbz = O=C(OCc1ccccc1)*
# Tests used:
# PD-L1 in U937 cells = experiment: PD-L1 levels in U937 cells by western blotting and flow cytometry; assay type: cell-based, human
# Method: (§1) Fig. 1 EGFR inhibitors were screened to reduce membrane PD-L1 levels. a High-throughput screening of 2125 FDA-approved drugs or drug candidates. U937 cells were incubated with IFNγ (100 ng/mL) for 48 h, treated with the drugs at 10 μM for 12 h. Ruxolitinib (Rux) was used as a positive control. The hit compounds that induced the decrease of PD-L1 levels are shown in blue. The depth of blue represents decreased level of PD-L1. The heatmap represents the targeted pathways obtained from the high-throughput screening, based upon decreased membrane PD-L1 level detected by flow cytometry. b Immunoblotting of PD-L1 in U937 cells treated with ES-072 (ES) or AZD9291 (AZD) at indicated concentrations for 12 h. ES and AZD are EGFR inhibitors. c, d Median fluorescence intensity (MFI) (c) and relative quantification (d) of PD-L1 in U937 cells treated with 10 μM ES-072 or 10 μM AZD9291 for 12 h. Data represent means ± SEM, n = 18, 6 independent repeats, ****P < 0.0001. e–g Immunoblotting (e, f) and flow cytometry (g) analysis of PD-L1 levels in U937 cells treated with 10 μM ES-072 or 10 μM AZD9291 for the indicated times. h, i Immunoblottings (h) of PD-L1 and β-TrCP, relative quantification (i) of PD-L1 MFI in H1975 cells transfected with non-targeting siRNA (si-CTRL) or β-TrCP siRNAs (si-β-TrCP) and treated with or without 10 μM ES-072/AZD9291 for 12 h. Data represent means ± SEM, n = 9, 3 independent repeats, NS: no significant; ****P < 0.0001. j–l Immunoblotting (j) and flow cytometry analysis (k) with relative quantification (l) of PD-L1 in H1975 cells treated with 10 μM ES-072 or AZD9291, and/or 5 μM LY2090314 (LY) for 12 h. LY is a GSK3 inhibitor. […]
# For western blot analysis, cells were collected and washed with PBS, then lysed in radioimmunoprecipitation assay (RIPA) buffer (1% Triton X-100, 100 mM Tris-HCl pH 8.8, 100 mM NaCl, 0.5 mM EDTA). […] The supernatant was collected and the protein concentration was measured by bicinchoninic acid reaction. […] Signals were detected using chemiluminescence reagents (#4AW001-500, 4A649 Biotech, Co.). […]
# GSK3α = GSK3α (Homo sapiens, UniProt P49840); experiment: In vitro kinase specificity profiling for GSK3α; assay type: biochemical
# PD-L1 in H1975 cells = experiment: PD-L1 levels in H1975 cells by immunoblotting and flow cytometry; assay type: cell-based, human
# Method: as §1, with “h.” for “h. LY is a GSK3 inhibitor.”
# Fig. 5 GSK3α-mediated phosphorylation of PD-L1 promotes PD-L1-ARIH1 interaction and ARIH1-induced degradation. a Co-IP analysis for the interaction of K48-ubiquitin, ARIH1 (HA), and PD-L1 in HEK293T cells transfected with HA-ARIH1 and Flag-PD-L1 (WT, S279A, S283A, or 2SA), treated with MG132 (10 μM) for 6 h; HA-tagged empty vector (HA-EV) was transfected as a negative control. b Co-IP analysis for the interaction of ARIH1 and PD-L1 in HEK293T cells transfected with HA-ARIH1 and Flag-PD-L1 (WT or 2SA), treated with 10 μM ES-072 for 24 h, Flag-tagged empty vector (Flag-EV) was transfected as a negative control. c HEK293T cells were transfected with Flag-PD-L1. Co-IP analysis for the interaction of ubiquitin and PD-L1 in HEK293T cells transfected with ARIH1-siRNAs or HA-GSK3α and treated with MG132 (10 μM) for 6 h; non-targeting siRNA (si-CTRL) was transfected as a negative control. d Immunoblots of PD-L1 and ARIH1 (HA) in H1975 cells transfected with HA-ARIH1, treated with or without 5 μM LY for 6 h. e, f MFI (e) and relative quantification (f) of PD-L1 in HA-ARIH1-overexpressed H1975 cells, treated with or without 5 μM LY for 6 h. […]
# GSK3α, sequence (P49840 whole entry): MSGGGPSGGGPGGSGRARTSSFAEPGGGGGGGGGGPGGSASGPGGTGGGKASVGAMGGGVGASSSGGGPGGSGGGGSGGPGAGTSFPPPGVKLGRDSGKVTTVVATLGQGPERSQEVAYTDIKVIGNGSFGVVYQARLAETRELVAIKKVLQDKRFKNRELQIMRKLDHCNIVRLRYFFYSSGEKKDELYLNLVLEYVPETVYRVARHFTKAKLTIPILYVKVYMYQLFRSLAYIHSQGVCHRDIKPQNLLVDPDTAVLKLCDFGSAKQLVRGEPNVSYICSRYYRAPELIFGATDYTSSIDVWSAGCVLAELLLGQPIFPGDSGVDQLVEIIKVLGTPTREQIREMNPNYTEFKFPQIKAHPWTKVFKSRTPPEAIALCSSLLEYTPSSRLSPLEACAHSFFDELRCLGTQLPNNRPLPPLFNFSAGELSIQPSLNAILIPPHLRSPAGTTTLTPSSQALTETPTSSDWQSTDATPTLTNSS
compound,measurement,setting,value
"C=CC(=O)Nc1cc(Nc2nccc(-c3cn(C)c4ccccc34)n2)c(OC)cc1N(C)CCN(C)C [AZD9291, Osimertinib]",IFNγ-induced membranal PD-L1 levels,"PD-L1 in U937 cells; western blotting and flow cytometry, 10 μM, 12 h",dramatically reduced
O=C1NC(=O)C(c2cnc3ccccn23)=C1c1cn2c3c(cc(F)cc13)CN(C(=O)N1CCCCC1)CC2 [LY2090314],IC50,GSK3α; single independent tests,980 pM and 810 pM and 840 pM
same,IC50,GSK3α; value with spread given in main text,870 ± 90 pM
same,ARIH1-overexpression-induced degradation of PD-L1,"PD-L1 in H1975 cells; H1975 cells transfected with HA-ARIH1, 5 μM LY for 6 h",rescued
same,reduction of PD-L1 levels induced following EGFR inhibition,"PD-L1 in H1975 cells; H1975 cells, 5 μM LY2090314 with 10 μM ES-072 or AZD9291, 12 h",did block this reduction
CC(C)C[C@@H](C=O)NC(=O)[C@H](CC(C)C)NC(=O)[C@H](CC(C)C)NC(=O)OCc1ccccc1 [MG132] (Cbz-Leu-Leu-Leu-aldehyde),decrease in the PD-L1 levels induced by ES-072,"PD-L1 in H1975 cells; H1975 cells, 10 μM ES-072 and 10 μM MG132 for 6 h",rescued
N#CC[C@H](C1CCCC1)n1cc(-c2ncnc3[nH]ccc23)cn1 [Ruxolitinib],IFNγ-induced PD-L1 levels,"PD-L1 in U937 cells; 100 ng/mL IFNγ 48 h, 10 μM Ruxolitinib 12 h",blocked
